Measured values: publication PMC11149917, “Translational and Therapeutic Evaluation of RAS-GTP Inhibition by RMC-6236 in RAS-Driven Cancers” (Cancer Discovery, 2024)
Values joined by “and” are separate entries in the source; they are usually repeats but may differ in a detail not shown here. Identical values can stand only once. Like-named read-outs stand apart in the source and are kept apart here.

What was measured:
[1] = tested on: DUSP6 mRNA in Capan-2 xenograft tumors; assay: In vivo PD by DUSP6 qPCR and PK/PD relationship; set-up: species or system mouse; conditions: for inhibition at 25 mg/kg: single oral dose 25 mg/kg
Method: (§1) Tumor-bearing animals were randomized and assigned into groups (n = 1–10/group). The vehicle at 10 mL/kg or RMC-6236 at indicated doses was administered via oral gavage daily, and animals were treated for 28 days, or up to 90 days if PFS was being assessed. […] For single-dose PKPD study, mice were randomized and assigned into groups (n = 3/dose/time point). A single dose of RMC-6236 was administered orally at either 3, 10, or 25 mg/kg. Blood and tissues, including the tumor, brain, colon, ear skin, and muscle, were harvested at indicated time points. Whole blood was collected in K2EDTA Microtainer tubes, incubated for 5 minutes, and snap-frozen in liquid nitrogen. The tissue was either fixed in 10% formalin or snap-frozen in liquid nitrogen for further analysis.
(§2) RNA was extracted from at least 20 mg of tissue using an RNeasy Mini Kit (Qiagen, 74104) and a High-Throughput Tissue grinder following the manufacturer's protocol. Reverse transcription was carried out using High-Capacity cDNA Reverse Transcription Kit (ABI, 4368814) according to the manufacturer's protocol. The cDNA product was used for qPCR analysis using TaqMan Gene-Expression Master Mix (ABI, 4369016). TaqMan primer probes specific to DUSP6 (human—Hs00737962_m1, murine—Mm00518185_m1, FAM-MGB) and 18S (RNA18S1; human—Hs99999901_s1, murine—Mm03928990_g1, FAM-MGB, used as an internal control gene) were used to detect the levels from each sample in duplicates using a 10 µL final reaction volume in a 384-well clear optical reaction plate. For qPCR, Ct values of DUSP6 and 18S were obtained for analysis. DUSP6 Ct value was normalized to 18S, and then the mean relative mRNA expression levels of each group were normalized to the vehicle control group. Values were plotted as relative change in mRNA expression compared with vehicle. Means ± SEM were shown.
(§3) Concentrations of RMC-6236 in tumor or normal tissues and percentage of DUSP6 inhibition as compared with the vehicle control from individual animals were collected and analyzed post a single dose of RMC-6236 ranging from 0.3 to 100 mg/kg (Supplementary Table S6). A 3-parameter sigmoidal exposure–response model was fitted to the data in GraphPad Prism to derive EC50 and EC90 values.

[2] = tested on: DUSP6 mRNA in KP-4 xenograft tumors; assay: In vivo PD by DUSP6 qPCR and PK/PD relationship; set-up: species or system mouse
Method: as §1, §2, §3

## CCn1c(-c2cc(N3CCN(C)CC3)cnc2[C@H](C)OC)c2c3cc(ccc31)-c1csc(n1)C[C@H](NC(=O)[C@H]1C[C@@H]1C)C(=O)N1CCC[C@H](N1)C(=O)OCC(C)(C)C2 [RMC-6236]
[1]; Capan-2, study Capan-2 #3_PHA 2023, 50 mg/kg, 24h
  % inhibition of DUSP6 vs control: 99.0809% and 99.0285% and 99.0385%
[1]; Capan-2, study Capan-2 #3_PHA 2023, 50 mg/kg, 48h
  % inhibition of DUSP6 vs control: 95.4581% and 92.3614% and 98.0435%
[1]; Capan-2, study Capan-2 #3_PHA 2023, 100 mg/kg, 2h
  % inhibition of DUSP6 vs control: 98.9837% and 95.8781% and 93.4418%
[1]; Capan-2, study Capan-2 #3_PHA 2023, 100 mg/kg, 4h
  % inhibition of DUSP6 vs control: 98.7746% and 99.0452% and 98.9369%
[1]; Capan-2, study Capan-2 #3_PHA 2023, 100 mg/kg, 8h
  % inhibition of DUSP6 vs control: 99.0419% and 99.2026%
[1]; Capan-2, study Capan-2 #3_PHA 2023, 100 mg/kg, 24h
  % inhibition of DUSP6 vs control: 99.1943% and 99.2814% and 99.0809%
[1]; Capan-2, study Capan-2 #3_PHA 2023, 100 mg/kg, 48h
  % inhibition of DUSP6 vs control: 98.7617% and 95.9908% and 98.9515%
[1]; Mus musculus, Capan-2, single oral dose 10 mg/kg, 8 hours after dose, read-out: inhibition of tumor DUSP6 levels (relative to vehicle control)
  inhibition at 10 mg/kg: > 95%
[1]; Mus musculus, Capan-2, 8 hours after dose, read-out: inhibition of tumor DUSP6 levels (relative to vehicle control)
  inhibition at 25 mg/kg: > 95%
[1]; Mus musculus, Capan-2, up to 24 hours after dose, read-out: inhibition of tumor DUSP6 levels (relative to vehicle control)
  inhibition at 25 mg/kg: > 90%
[1]; Mus musculus, Capan-2 xenograft tumors, read-out: EC50, inhibition of DUSP6 expression vs RMC-6236 concentration (PK/PD relationship)
  EC50: 90 nM
[1]; Mus musculus, Capan-2 xenograft tumors, read-out: EC90, inhibition of DUSP6 expression vs RMC-6236 concentration (PK/PD relationship)
  EC90: 809 nM
[2]; KP-4 (25 mg/kg x 31d), 8h
  DUSP6 mRNA(% normalized to control): 3.6%
[2]; KP-4 (25 mg/kg x 31d), 24h
  DUSP6 mRNA(% normalized to control): 36.2%
[2]; KP-4 (25 mg/kg), 2h
  DUSP6 mRNA(% normalized to control): 115.7%
[2]; KP-4 (25 mg/kg), 4h
  DUSP6 mRNA(% normalized to control): 18.9%
[2]; KP-4 (25 mg/kg), 8h
  DUSP6 mRNA(% normalized to control): 10.7%
[2]; KP-4 (25 mg/kg), 12h
  DUSP6 mRNA(% normalized to control): 4.3%
[2]; KP-4 (25 mg/kg), 24h
  DUSP6 mRNA(% normalized to control): 37.1%
[2]; KP-4 (25 mg/kg), 48h
  DUSP6 mRNA(% normalized to control): 48.3%
[2]; KP-4, study KP-4 #3, 25 mg/kg, 4h
  % inhibition of DUSP6 vs control: 83.13% and 97.7% and 98.74%
[2]; KP-4, study KP-4 #3, 25 mg/kg, 8h
  % inhibition of DUSP6 vs control: 99.27% and 98.8% and 98.46%
[2]; KP-4, study KP-4 #3, 25 mg/kg, 24h
  % inhibition of DUSP6 vs control: 84.47% and 92.71% and 89.79%
[2]; KP-4, study KP-4 #3, 50 mg/kg, 4h
  % inhibition of DUSP6 vs control: 99.82% and 89.5% and 98.09%
[2]; KP-4, study KP-4 #3, 50 mg/kg, 8h
  % inhibition of DUSP6 vs control: 99.77% and 99.81% and 99.62%
[2]; KP-4, study KP-4 #3, 50 mg/kg, 24h
  % inhibition of DUSP6 vs control: 96.99% and 96.44% and 98.05%
[2]; KP-4, study KP-4 #3, 50 mg/kg, 48h
  % inhibition of DUSP6 vs control: 83.3% and 81.21% and 85.91%
[2]; KP-4, study KP-4 #4, 25 mg/kg, 8h
  % inhibition of DUSP6 vs control: 95.62% and 96.57% and 90.57%
[2]; KP-4, study KP-4 #4, 25 mg/kg, 24h
  % inhibition of DUSP6 vs control: 87.48% and 87.9% and 94.68%
[2]; KP-4, study KP-4 #4, 40 mg/kg, 8h
  % inhibition of DUSP6 vs control: 96.06% and 97.31% and 95.84%
[2]; KP-4, study KP-4 #4, 40 mg/kg, 24h
  % inhibition of DUSP6 vs control: 75.38% and 93.78% and 96.21%
[2]; KP-4, study KP-4 #4, 100 mg/kg, 8h
  % inhibition of DUSP6 vs control: 99.67% and 97.58% and 99.05%
[2]; KP-4, study KP-4 #4, 100 mg/kg, 24h
  % inhibition of DUSP6 vs control: 98.22% and 98.9% and 97.78%
[2]; KP-4, study KP-4 #4, 100 mg/kg, 48h
  % inhibition of DUSP6 vs control: 68.4% and 89.83% and 80.41%
[2]; KP-4, study KP-4 #5, 25 mg/kg, 4h
  % inhibition of DUSP6 vs control: 96.1077% and 90.078% and 87.6997%
[2]; KP-4, study KP-4 #5, 25 mg/kg, 8h
  % inhibition of DUSP6 vs control: 91.9687% and 92.3226% and 98.2581%
[2]; KP-4, study KP-4 #5, 25 mg/kg, 24h
  % inhibition of DUSP6 vs control: 65.5692% and 78.5839% and 66.1607%
[2]; KP-4, study KP-4 #6, 3 mg/kg, 8h
  % inhibition of DUSP6 vs control: 59.13% and 61.2% and 53.53%
[2]; KP-4, study KP-4 #6, 3 mg/kg, 24h
  % inhibition of DUSP6 vs control: 48.26% and 46.44% and 45.31%
[2]; KP-4, study KP-4 #6, 3 mg/kg, 48h
  % inhibition of DUSP6 vs control: 0% and 3.79%
[2]; KP-4, study KP-4 #6, 10 mg/kg, 4h
  % inhibition of DUSP6 vs control: 74.13% and 85.85% and 59.13%
[2]; KP-4, study KP-4 #6, 10 mg/kg, 8h
  % inhibition of DUSP6 vs control: 70.29% and 97.17% and 70.69%
[2]; KP-4, study KP-4 #6, 10 mg/kg, 48h
  % inhibition of DUSP6 vs control: 8.03% and 13.59% and 9.61%
[2]; KP-4, study KP-4 #6, 25 mg/kg, 4h
  % inhibition of DUSP6 vs control: 93.33% and 56.04% and 93.99%
[2]; KP-4, study KP-4 #6, 25 mg/kg, 8h
  % inhibition of DUSP6 vs control: 85.45% and 84.94% and 97.45%
[2]; KP-4, study KP-4 #6, 25 mg/kg, 12h
  % inhibition of DUSP6 vs control: 93.75% and 94.27% and 98.93%
[2]; KP-4, study KP-4 #6, 25 mg/kg, 48h
  % inhibition of DUSP6 vs control: 63.92% and 39.53%
[2]; Mus musculus, KP-4 xenograft tumors, read-out: EC50, inhibition of DUSP6 expression vs RMC-6236 concentration (PK/PD relationship)
  EC50: 454 nM
[2]; Mus musculus, KP-4 xenograft tumors, read-out: EC90, inhibition of DUSP6 expression vs RMC-6236 concentration (PK/PD relationship)
  EC90: 2890 nM
